Assays:
17HSD type 1 = molecular target: T1, 17HSD type 1 (Homo sapiens, UniProt P14061); assay: 17HSD type 1 inhibition in MCF-7 cells stably expressing 17HSD type 1 (HPLC detection of tritium labeled estrone conversion); type: cell-based; set-up: expressed in transfected cells; host or cells: MCF-7 cells stably expressing 17HSD type 1; details: MCF-7 cells expressing 17HSD type 1, substrate estrone 20 nM
T1 sequence (P14061 1-328): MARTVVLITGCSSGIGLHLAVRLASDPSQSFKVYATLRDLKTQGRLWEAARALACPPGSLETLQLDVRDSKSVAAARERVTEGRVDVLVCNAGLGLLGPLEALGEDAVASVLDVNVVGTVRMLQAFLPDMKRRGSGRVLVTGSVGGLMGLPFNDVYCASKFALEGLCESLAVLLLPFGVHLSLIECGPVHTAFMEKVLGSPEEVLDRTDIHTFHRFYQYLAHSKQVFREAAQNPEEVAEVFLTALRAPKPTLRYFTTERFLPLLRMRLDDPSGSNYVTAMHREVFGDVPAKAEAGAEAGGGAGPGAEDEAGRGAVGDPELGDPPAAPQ
Description: (§1) The tested compounds (about 1000 selected different compounds) were screened in respect of 17HSD enzyme activities according to the following method:
(§2) The compounds were screened in respect of 17HSD enzyme activities in vitro on two established MCF-7 cell lines, each stably expressing one 17HSD isoenzyme, either 17HSD type 1 or 17HSD type 2, but not the other one. The interconversion of substrate by each isoenzyme and the HSD-inhibiting activity of chemical compounds in these cell lines was detected by HPLC system (Miettinen et al., Int J Cancer (1996) 68, 600-604).
(§3) Varying amounts of the test compounds were incubated in the growth medium of the 17HSD expressing cells together with tritium labeled substrate (estrone for 17HSD type 1 enzyme; 20 nM). The medium samples were removed after exact incubation time and the reaction was stopped by deepfreezing. The samples were analyzed by HPLC-coupled flow scintillation analysis. The 17HSD-inhibiting activity of the test compounds was compared to known reference compound apigenin and to a negative control.

17HSD type-2 enzyme = molecular target: T2, 17HSD type-2 enzyme (Homo sapiens, UniProt P37059); assay: 17HSD type 2 inhibition in MCF-7 cells stably expressing 17HSD type 2 (HPLC detection); type: cell-based; details: MCF-7 cells expressing 17HSD type 2; concentration not given
T2 construct: expressed in transfected cells; host or cells: MCF-7 cells stably expressing 17HSD type 2
T2 sequence (P37059 1-387): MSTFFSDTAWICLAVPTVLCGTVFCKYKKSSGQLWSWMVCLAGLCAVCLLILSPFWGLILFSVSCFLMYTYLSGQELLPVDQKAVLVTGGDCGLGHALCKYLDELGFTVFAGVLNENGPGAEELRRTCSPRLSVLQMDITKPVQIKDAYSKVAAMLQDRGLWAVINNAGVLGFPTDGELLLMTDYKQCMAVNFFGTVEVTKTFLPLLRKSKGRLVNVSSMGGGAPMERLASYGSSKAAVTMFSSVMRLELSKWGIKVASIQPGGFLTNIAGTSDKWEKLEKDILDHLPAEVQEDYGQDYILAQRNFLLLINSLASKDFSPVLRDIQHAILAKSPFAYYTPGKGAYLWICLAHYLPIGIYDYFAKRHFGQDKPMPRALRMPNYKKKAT
Description: as §1, §2, §3

| Structure (SMILES) | inhibition of the 17HSD type 1 enzyme (17HSD type 1; concentration 1 μM) [%] | inhibition of the 17HSD type 1 enzyme (17HSD type 1; concentration 10 μM) [%] | inhibition of the 17HSD type-2 enzyme (17HSD type-2 enzyme) | inhibition at 1 µM (17HSD type 1; MCF7, concentration 1 μM) [%] |
| --- | --- | --- | --- | --- |
| O=CC1=C(Sc2ccccc2)c2sc3nc4n(c(=O)c3c2CC1)CCCCC4 [Compound A] | 80 | 95 | did not show any inhibition effect | – |
| O=c1cc(-c2ccc(O)cc2)oc2cc(O)cc(O)c12 [apigenin] | – | – | 5% | 48 |
